Test results: PubChem BioAssay AID330 (DTP/NCI, 2004)
Values joined by “and” are separate entries in the source; they are usually repeats but may differ in a detail not shown here. Identical values can stand only once. Inconclusive results and toxic doses are left out. Rule for the calls: active = survival T/C of 150% or more; inactive = T/C below 125% in these data.

Test system: P388 leukemia ip, CD2F1 mice, survival T/C
Experiment: NCI In Vivo Anticancer Drug Screen. Data for tumor model P388 Leukemia (intraperitoneal) in CD2F1 (CDF1) mice
Conditions: endpoint: median survival time, higher = longer survival
Procedure, shortened: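 Mice carrying the transplanted tumor received test compound or vehicle. Survival was recorded in each group, and the value is the treated-group measurement divided by that of the vehicle-treated control group.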

[1] = dose: 50.0 mg/kg/injection, schedule: Q01DX009 (ip), vehicle: saline
[2] = dose: 100.0 mg/kg/injection, schedule: Q01DX009 (ip), vehicle: saline
[3] = dose: 200.0 mg/kg/injection, schedule: Q01DX009 (ip), vehicle: saline
[4] = dose: 50.0 mg/kg/injection, schedule: Q01DX005 (ip), vehicle: Klucel (hydroxypropylcellulose) (HPC)
[5] = dose: 100.0 mg/kg/injection, schedule: Q01DX005 (ip), vehicle: Klucel (hydroxypropylcellulose) (HPC)
[6] = dose: 200.0 mg/kg/injection, schedule: Q01DX005 (ip), vehicle: Klucel (hydroxypropylcellulose) (HPC)

Measured: T/C

OCCc1ccccn1
inactive: [1] 102 % of control | [2] 111 % of control | [3] 102 % of control | dose: 400.0 mg/kg/injection, schedule: Q01DX009 (ip), vehicle: saline 102 % of control

CN(CCC#N)c1ccc(/C=C(\C#N)c2cccc(C(F)(F)F)c2)cc1
inactive: [4] 105 % of control | [5] 90 % of control | [6] 96 % of control

O=C1NC(c2ccccc2)(c2ccccc2)C(=O)N1CN1CCN(CN2C(=O)NC(c3ccccc3)(c3ccccc3)C2=O)CC1
inactive: dose: 25.0 mg/kg/injection, schedule: Q01DX001 (ip), vehicle: saline with Tween-80 100 % of control | dose: 50.0 mg/kg/injection, schedule: Q01DX001 (ip), vehicle: saline with Tween-80 95 % of control | dose: 100.0 mg/kg/injection, schedule: Q01DX001 (ip), vehicle: saline with Tween-80 90 % of control

O=C(/C=C/c1ccc(F)cc1)c1ccc(Cl)cc1
inactive: dose: 100.0 mg/kg/injection, schedule: Q04DX003 (ip), vehicle: saline with Tween-80 90 % of control | dose: 200.0 mg/kg/injection, schedule: Q04DX003 (ip), vehicle: saline with Tween-80 86 % of control | dose: 400.0 mg/kg/injection, schedule: Q04DX003 (ip), vehicle: saline with Tween-80 100 % of control

Cc1nn(CCO)c(=O)c(C#N)c1C
inactive: dose: 25.0 mg/kg/injection, schedule: Q04DX002 (ip), vehicle: distilled water + Tween-80 103 % of control | dose: 50.0 mg/kg/injection, schedule: Q04DX002 (ip), vehicle: distilled water + Tween-80 108 % of control | dose: 100.0 mg/kg/injection, schedule: Q04DX002 (ip), vehicle: distilled water + Tween-80 101 % of control | dose: 200.0 mg/kg/injection, schedule: Q04DX002 (ip), vehicle: distilled water + Tween-80 94 % of control

COC(C)(C)c1cc(C(C)(C)C)cc2c1SOC2(C)C
inactive: dose: 100.0 mg/kg/injection, schedule: Q04DX002 (ip), vehicle: Klucel (hydroxypropylcellulose) (HPC) 94 % of control | dose: 200.0 mg/kg/injection, schedule: Q04DX002 (ip), vehicle: Klucel (hydroxypropylcellulose) (HPC) 100 % of control | dose: 400.0 mg/kg/injection, schedule: Q04DX002 (ip), vehicle: Klucel (hydroxypropylcellulose) (HPC) 114 % of control

Cc1c(O)c2c(c(O)c1Cc1cccc(CN)c1)C(=O)c1ccccc1C2=O
inactive: dose: 1.56 mg/kg/injection, schedule: Q01DX009 (ip), vehicle: water 91 % of control | dose: 25.0 mg/kg/injection, schedule: Q01DX009 (ip), vehicle: water 89 % of control

Cc1ccc(S(=O)(=O)NC(CCCNC(=O)OCc2ccccc2)C(=O)O)cc1 (stereo not given)
inactive: [4] 100 % of control | [5] 99 % of control | [6] 96 % of control

O=[N+]([O-])c1cnc(Oc2ccccc2[N+](=O)[O-])nc1
inactive: dose: 6.25 mg/kg/injection, schedule: Q01DX009 (ip), vehicle: Klucel (hydroxypropylcellulose) (HPC) 107 % of control | dose: 12.5 mg/kg/injection, schedule: Q01DX009 (ip), vehicle: Klucel (hydroxypropylcellulose) (HPC) 98 % of control | dose: 25.0 mg/kg/injection, schedule: Q01DX009 (ip), vehicle: Klucel (hydroxypropylcellulose) (HPC) 98 % of control | dose: 100.0 mg/kg/injection, schedule: Q01DX009 (ip), vehicle: Klucel (hydroxypropylcellulose) (HPC) 86 % of control

O/N=C1/CCN2CCCc3cccc1c32
inactive: dose: 132.0 mg/kg/injection, schedule: Q01DX001 (ip), vehicle: saline with Tween-80 95 % of control | dose: 200.0 mg/kg/injection, schedule: Q01DX001 (ip), vehicle: saline with Tween-80 100 % of control | dose: 300.0 mg/kg/injection, schedule: Q01DX001 (ip), vehicle: saline with Tween-80 100 % of control

CCOC(=O)c1c(Cl)c(CC)c(Cl)n2c1nc1ccccc12
inactive: dose: 60.0 mg/kg/injection, schedule: Q01DX005 (ip), vehicle: saline with Tween-80 97 % of control | dose: 120.0 mg/kg/injection, schedule: Q01DX005 (ip), vehicle: saline with Tween-80 93 % of control | dose: 240.0 mg/kg/injection, schedule: Q01DX005 (ip), vehicle: saline with Tween-80 101 % of control

COCC(=O)Oc1ccc[nH]c1=O
inactive: dose: 12.5 mg/kg/injection, schedule: Q01DX009 (ip), vehicle: saline 101 % of control and 113 % of control | dose: 25.0 mg/kg/injection, schedule: Q01DX009 (ip), vehicle: saline 103 % of control and 107 % of control | [1] 100 % of control and 106 % of control | [2] 106 % of control and 113 % of control | [3] 100 % of control and 103 % of control

c1c2c(cc3c1OCN(C1CC1)C3)OCN(C1CC1)C2
inactive: dose: 50.0 mg/kg/injection, schedule: Q01DX009 (ip), vehicle: saline with Tween-80 94 % of control | dose: 100.0 mg/kg/injection, schedule: Q01DX009 (ip), vehicle: saline with Tween-80 90 % of control | dose: 200.0 mg/kg/injection, schedule: Q01DX009 (ip), vehicle: saline with Tween-80 96 % of control

OC1COC2C(O)COC12 (stereo not given)
inactive: [1] 102 % of control | [2] 90 % of control
